The text below walks through data of article PMC6264777, “New Catechol Derivatives of Safrole and Their Antiproliferative Activity towards Breast Cancer Cells” (Molecules, 2011).

Data set [1] concerns dermal human fibroblast cells (DHF). Kind of data set: cells. Type of data set: cell-based. Conditions: for IC50: read-out: IC50 DHF.
In another data set the test system is MDA-MB-231 cells. Kind of data set: Sulforhodamine B in vitro growth inhibition assay, MDA-MB-231. To be noted: read-out: IC50 (μM) MDA-MB-231. The format is cell-based, human. As for the experimental part:
(§1) IC50 values of compounds 3-11, safrole, catechol 2 and the reference compound daunorubicin are summarized in Table 1 as the micromolar concentration that produces 50% cell growth inhibition after 72 hours of drug exposure.
(§2) The experimental cell cultures were obtained from American Type Culture Collection (Rockville, MD, USA). MCF-7, MDA-MB-231 cells were grown in DMEM-F12 medium containing 10% FCS, 100 U/mL penicillin, 100 µg/mL streptomycin and 1 mM glutamine. Cells are seeded into 96 well microtiter plates in 100 µL at plating density of 3 × 10^3 cells/well. After 24 h incubation at 37 °C (under a humidified 5% carbon dioxide to allow cell attachment) the cells were treated with different concentrations of drugs (safrole and derivatives) and incubated for 72 h under the same conditions. Stock solution of compounds was prepared in ethanol and the final concentration of this solvent was kept constant at 0.1%. Control cultures received 0.1% ethanol alone.
(§3) The sulforhodamine B assay according to the method of Skehan et al. was used with some modifications. Briefly, the cells were set up 3 × 10^3 cells per well of a 96-well, flat-bottomed 200 μL microplate. Cells were incubated at 37 °C in a humidified 5% CO2/95% air mixture and treated with the compounds at different concentrations for 72 hours. At the end of drug exposure, cells were fixed with 50% trichloroacetic acid at 4 °C (TCA final concentration 10%). After washing with destilled water, cells were stained with 0.1% sulforhodamine B (Sigma-Aldrich, St. Louis, MO, USA), dissolved in 1% acetic acid (50 µL/well) for 30 min, and subsequently washed with 1% acetic acid to remove unbound stain. Protein-bound stain was solubilized with 100 µL of 10 mM unbuffered Tris base. The cell density was determined using a […] plate reader (wavelength 540 nm). Values shown are the mean + SD three independent experiments in triplicate.

Another data set concerns MCF-7 cells. In words: Sulforhodamine B in vitro growth inhibition assay, MCF-7. Type of data set: cell-based, human. Conditions: read-out: IC50 (μM) MCF-7. How it is done: as §1, §2, §3
For another data set, the system named is various human cell types. Conditions: cited from earlier work.
Setting [2] is: Homo sapiens, Fibroblast, 50% cell growth inhibition after 72 hours of drug exposure, SRB, non-tumoral cells.
Where [3] appears, read: Homo sapiens, MDA-MB-231, 50% cell growth inhibition after 72 hours of drug exposure, SRB, mean ± SD, three independent experiments in triplicate.
Where [4] appears, read: Homo sapiens, MCF7, 50% cell growth inhibition after 72 hours of drug exposure, SRB, mean ± SD, three independent experiments in triplicate.
The mark [5] stands for this setting: 50% cell growth inhibition after 72 hours of drug exposure, SRB, mean ± SD, three independent experiments in triplicate.

Read-outs that look alike come from different tables or passages of the source.

As to `CC(=O)OCCCc1ccc(OC(C)=O)c(OC(C)=O)c1` [Compound 6, 4-[3-(acetyloxy)propyl]-1,2-phenylene diacetate], the IC50 was greater than 100 µM in data set [1] (setting [2]), 5.9 ± 0.8 µM with MDA-MB-231 cells (setting [3]) and 97.8 ± 12.4 µM in the data set on MCF-7 cells (setting [4]).
Take `CC(=O)OCCCc1cc(OC(C)=O)c(OC(C)=O)cc1[N+](=O)[O-]` [Compound 10, 4-[3-(acetyloxy)propyl]-5-nitro-1,2-phenylene diacetate]: the IC50 in data set [1] (setting [2]) was greater than 100 µM; in the data set with MDA-MB-231 cells (setting [3]) it was 33.8 ± 4.9 µM; in the data set on MCF-7 cells (setting [4]), 51.3 ± 2.1 µM.
Turning to `CC(=O)OCCCc1cc(O)c(O)cc1[N+](=O)[O-]` [Compound 11, 3-(4,5-dihydroxy-2-nitrophenyl)propyl acetate], the 50% inhibitory concentration (IC50) is greater than 100 µM in data set [1] (setting [2]), 27.1 ± 4.4 µM in the data set on MDA-MB-231 cells (setting [3]) and 63.8 ± 5.5 µM in the data set on MCF-7 cells (setting [4]).
For `COc1cccc2c1C(=O)c1c(O)c3c(c(O)c1C2=O)C[C@@](O)(C(C)=O)C[C@@H]3O[C@H]1C[C@H](N)[C@H](O)[C@H](C)O1` [Daunorubicin, reference compound] the same measures were 14.3 ± 1.85 µM, 0.38 ± 0.06 µM and 0.19 ± 0.01 µM.
On to `OCCCc1ccc(O)c(O)c1` [Compound 5, 4-(3-hydroxypropyl)benzene-1,2-diol], for which the IC50 is greater than 100 µM in data set [1] (setting [2]), 54.3 ± 4.1 µM with MDA-MB-231 cells (setting [3]) and greater than 100 µM in the data set with MCF-7 cells (setting [4]).
For `CC(O)Cc1cc(O)c(O)cc1[N+](=O)[O-]` (centres unmarked) [Compound 9, 4-(2-hydroxypropyl)-5-nitrobenzene-1,2-diol], the concentration for half-maximal inhibition (IC50) (in data set [1] (setting [2]); in the data set with MDA-MB-231 cells (setting [3]); in the data set with MCF-7 cells (setting [4])) was greater than 100 µM each time.
`C=CCc1cc(O)c(O)cc1[N+](=O)[O-]` [Compound 2, 4-allyl-5-nitrobenzene-1,2-diol]: the values for the 50% inhibitory concentration (IC50) (in data set [1] (setting [2]); in the data set with MDA-MB-231 cells (setting [3]); in the data set with MCF-7 cells (setting [4])) were greater than 100 µM, 37.5 ± 2.65 µM and 55 ± 7.11 µM, respectively.
`C=CCc1ccc(O)c(O)c1` [Compound 3, 4-allylbenzene-1,2-diol]: in data set [1], the “toxicity towards dermal human fibroblast (DHF cells)” value was “without toxicity”. Besides, the IC50 in data set [1] (setting [2]) is greater than 100 µM; with MDA-MB-231 cells (setting [3]), 40.2 ± 6.9 µM; in the data set with MCF-7 cells (setting [4]), 98.4 ± 11.6 µM.
Take `C=CCc1ccc(OC(C)=O)c(OC(C)=O)c1` [Compound 4, 4-allyl-1,2-phenylene diacetate]: the IC50 in data set [1] (setting [2]) was greater than 100 µM; in the data set with MDA-MB-231 cells (setting [3]), 54.7 ± 6.6 µM; in the data set on MCF-7 cells (setting [4]) it was greater than 100 µM.
Take “4-allyl-1,2-phenylene diacetate [Compound 7]”: the IC50 in data set [1] (50% cell growth inhibition after 72 hours of drug exposure, SRB, non-tumoral cells) is greater than 100 µM; in the data set on MDA-MB-231 cells (setting [5]), 41.7 ± 7.4 µM; with MCF-7 cells (setting [5]) it was greater than 100 µM.
For `C=CCc1ccc2c(c1)OCO2` [safrole, Safrole], the 50% inhibitory concentration (IC50) in data set [1] (Homo sapiens, Fibroblast, 72 h) was greater than 100 µM; with MDA-MB-231 cells (Homo sapiens, MDA-MB-231, 72 h) it was greater than 100 µM; in the data set with MCF-7 cells (Homo sapiens, MCF7, 72 h), greater than 100 µM. Moreover, in the data set with various human cell types, the “concentrations at which safrole becomes cytotoxic” value is 5000 to 10000 µM.
As for `O=[N+]([O-])c1cc(O)c(O)cc1CCCO` [Compound 8, 4-(3-hydroxypropyl)-5-nitrobenzene-1,2-diol], the IC50 in data set [1] (setting [2]) is greater than 100 µM; with MDA-MB-231 cells (setting [3]) it was 57.3 ± 4.1 µM; in the data set with MCF-7 cells (setting [4]), 78.2 ± 8.9 µM.
